Laboratory results as given in patent US20100197724A1, “6.5 -PYRROLOPIPERIDINE TACHYKININ RECEPTOR ANTAGONISTS” (priority 2007, published 2010).

Target: T1, human neurokinin-1 receptor (NK1R) (Homo sapiens, UniProt P25103)
T1 construct: expressed in transfected cells
Test: 125I-substance P binding assay of human NK1R expressed in COS or CHO cells
Conditions: competition with 125I-substance P
Procedure: Receptor Expression in COS: To express the cloned human neurokinin-1 receptor (NK1R) transiently in COS, the cDNA for the human NK1R was cloned into the expression vector pCDM9 which was derived from pCDM8 (INVITROGEN) by inserting the ampicillin resistance gene (nucleotide 1973 to 2964 from BLUESCRIPT SK+) into the Sac II site. Transfection of 20 ug of the plasmid DNA into 10 million COS cells was achieved by electroporation in 800 ul of transfection buffer (135 mM NaCl, 1.2 mM CaCl2, 1.2 mM MgCl2, 2.4 mM K2HPO4, 0.6 mM KH2PO4, 10 mM glucose, 10 mM HEPES pH 7.4) at 260 V and 950 uF using the IBI GENEZAPPER (IBI, New Haven, Conn.). The cells were incubated in 10% fetal calf serum, 2 mM glutamine, 100 U/ml penicillin-streptomycin, and 90% DMEM media (GIBCO, Grand Island, N.Y.) in 5% CO2 at 37° C. for three days before the binding assay.
Stable Expression in CHO: To establish a stable cell line expressing the cloned human NK1R, the cDNA was subcloned into the vector pRcCMV (INVITROGEN). Transfection of 20 ug of the plasmid DNA into CHO cells was achieved by electroporation in 800 ul of transfection buffer supplemented with 0.625 mg/ml Herring sperm DNA at 300 V and 950 uF using the IBI GENEZAPPER (IBI). The transfected cells were incubated in CHO media [10% fetal calf serum, 100 U/ml penicillin-streptomycin, 2 mM glutamine, 1/500 hypoxanthine-thymidine (ATCC), 90% IMDM media (JRH BIOSCIENCES, Lenexa, Kans.), 0.7 mg/ml G418 (GIBCO)] in 5% CO2 at 37° C. until colonies were visible. Each colony was separated and propagated. The cell clone with the highest number of human NK1R was selected for subsequent applications such as drug screening.
Assay Protocol using COS or CHO: The binding assay of human NK1R expressed in either COS or CHO cells is based on the use of ^125I-substance P (^125I-SP, from DU PONT, Boston, Mass.) as a radioactively labeled ligand which competes with unlabeled substance P or any other ligand for binding to the human NK1R. Monolayer cell cultures of COS or CHO were dissociated by the non-enzymatic solution (SPECIALTY MEDIA, Lavallette, N.J.) and resuspended in appropriate volume of the binding buffer (50 mM Tris pH 7.5, 5 mM MnCl2, 150 mM NaCl, 0.04 mg/ml bacitracin, 0.004 mg/ml leupeptin, 0.2 mg/ml BSA, 0.01 mM phosphoramidon) such that 200 ul of the cell suspension would give rise to about 10,000 cpm of specific ^125I-SP binding (approximately 50,000 to 200,000 cells). In the binding assay, 200 ul of cells were added to a tube containing 20 ul of 1.5 to 2.5 nM of ^125I-SP and 20 ul of unlabeled substance P or any other test compound. The tubes were incubated at 4° C. or at room temperature for 1 hour with gentle shaking. The bound radioactivity was separated from unbound radioactivity by GF/C filter (BRANDEL, Gaithersburg, Md.) which was pre-wetted with 0.1% polyethylenimine. The filter was washed with 3 ml of wash buffer (50 mM Tris pH 7.5, 5 mM MnCl2, 150 mM NaCl) three times and its radioactivity was determined by gamma counter. The activation of phospholipase C by NK1R may also be measured in CHO cells expressing the human NK1R by determining the accumulation of inositol monophosphate which is a degradation product of IP3. CHO cells are seeded in 12-well plate at 250,000 cells per well. After incubating in CHO media for 4 days, cells are loaded with 0.025 uCi/ml of ^3H-myoinositol by overnight incubation. The extracellular radioactivity is removed by washing with phosphate buffered saline. LiCl is added to the well at final concentration of 0.1 mM with or without the test compound, and incubation is continued at 37° C. for […]. Substance P is added to the well at final concentration of 0.3 nM to activate the human NK1R. After 30 min of incubation at 37° C., the media is removed and 0.1 N HCl is added. Each well is sonicated at 4° C. and extracted with CHCl3/methanol (1:1). The aqueous phase is applied to a 1 ml Dowex AG 1X8 ion exchange column. […]

T1 sequence (P25103 whole entry): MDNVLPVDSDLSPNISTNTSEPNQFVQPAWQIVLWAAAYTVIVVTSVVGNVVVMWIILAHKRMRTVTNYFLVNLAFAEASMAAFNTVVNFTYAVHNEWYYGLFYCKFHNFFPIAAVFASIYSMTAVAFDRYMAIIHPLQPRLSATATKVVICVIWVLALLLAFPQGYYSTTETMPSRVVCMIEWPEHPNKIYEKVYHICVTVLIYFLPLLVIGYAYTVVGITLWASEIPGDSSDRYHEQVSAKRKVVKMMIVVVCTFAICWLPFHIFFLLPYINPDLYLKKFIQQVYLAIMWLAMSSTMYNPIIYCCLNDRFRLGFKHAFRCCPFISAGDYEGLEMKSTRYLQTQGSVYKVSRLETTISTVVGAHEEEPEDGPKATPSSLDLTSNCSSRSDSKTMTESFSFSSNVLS

Row | Compound | IC50
1 | O=C1C=C(N2C[C@@H]3CCN(C(=O)Cc4cc(C(F)(F)F)cc(C(F)(F)F)c4)[C@H](c4ccc(F)cc4)[C@H]3C2)CC1 (racemic) [Example 1, 3-[(3aSR,4RS,7aSR)-5-{[3,5-bis(trifluoromethyl)phenyl]acetyl}-4-(4-fluorophenyl)octahydro-2H-pyrrolo[3,4-c]pyridin-2-yl]cyclcopent-2-en-1-one] | 1.7 nM
2 | CC(C(=O)N1CC[C@@H]2CN(C3=CC(=O)CC3)CC2[C@@H]1c1ccc(F)cc1)c1cc(C(F)(F)F)cc(C(F)(F)F)c1 (mixture of isomers) [Example 2, 3-[(3aSR,4RS,7aSR)-5-{2-[3,5-bis(trifluoromethyl)phenyl]propanoyl}-4-(4-fluorophenyl)octahydro-2H-pyrrolo[3,4-c]pyridin-2-yl]cyclopent-2-en-1-one] | 0.25 nM
3 | CC(C(=O)N1CC[C@@H]2CN(C3=CC(=O)CC3)CC2[C@@H]1c1ccc(F)cc1)c1cc(C(F)(F)F)cc(C(F)(F)F)c1 (mixture of isomers) [Example 3, 3-[(3aSR,4RS,7aSR)-5-{2-[3,5-bis(trifluoromethyl)phenyl]propanoyl}-4-(4-fluorophenyl)octahydro-2H-pyrrolo[3,4-c]pyridin-2-yl]cyclopent-2-en-1-one] | 12 nM
4 | CC(C)(C(=O)N1CC[C@@H]2CN(C3=CC(=O)CC3)C[C@H]2[C@@H]1c1ccc(F)cc1)c1cc(C(F)(F)F)cc(C(F)(F)F)c1 (racemic) [Example 4] | 0.17 nM
5 | O=C(CN1CCOC1=O)N1C[C@H]2CCN(C(=O)Cc3cc(C(F)(F)F)cc(C(F)(F)F)c3)[C@@H](c3ccc(F)cc3)[C@@H]2C1 (racemic) [Example 5, 3-{2-[(3aSR,4RS,7aSR)-5-{[3,5-bis(trifluoromethyl)phenyl]acetyl}-4-(4-fluorophenyl)octahydro-2H-pyrrolo[3,4-c]pyridin-2-yl]-2-oxoethyl}-1,3-oxazolidin-2-one] | 3.5 nM
6 | CC(c1cc(C(F)(F)F)cc(C(F)(F)F)c1)N(C)C(=O)N1CC[C@@H]2CN(C(=O)C3CCOCC3)C[C@H]2[C@@H]1c1ccc(F)cc1 (mixture of isomers) [Example 7, (3aSR,4RS,7aSR)-N-{1-[3,5-bis(trifluoromethyl)phenyl]ethyl}-4-(4-fluorophenyl)-N-methyl-2-(tetrahydro-2H-pyran-4-ylcarbonyl)octahydro-5H-pyrrolo[3,4-c]pyridine-5-carboxamide] | 0.53 nM
7 | CC(c1cc(C(F)(F)F)cc(C(F)(F)F)c1)N(C)C(=O)N1CC[C@@H]2CN(C3=CC(=O)CC3)CC2[C@@H]1c1ccc(F)cc1 (stereo partly drawn) [Example 6] | 0.16 nM
8 | Cc1ccccc1[C@H]1[C@@H]2CN(Cc3ccccc3)C[C@H]2CCN1C(=O)N(C)[C@H](C)c1cc(C(F)(F)F)cc(C(F)(F)F)c1 [Example 8, (3aS,4R,7aS)-2-benzyl-N-{(1R)-1-[3,5-bis(trifluoromethyl)phenyl]ethyl}-N-methyl-4-(2-methylphenyl)octahydro-5H-pyrrolo[3,4-c]pyridine-5-carboxamide] | 1.19 nM
9 | Cc1ccccc1[C@H]1[C@@H]2CNC[C@H]2CCN1C(=O)N(C)[C@H](C)c1cc(C(F)(F)F)cc(C(F)(F)F)c1 [Example 9, (3aS,4R,7aS)-N-{(1R)-1-[3,5-bis(trifluoromethyl)phenyl]ethyl}-N-methyl-4-(2-methylphenyl)octahydro-5H-pyrrolo[3,4-c]pyridine-5-carboxamide] | 0.041 nM
10 | Cc1ccccc1[C@H]1[C@@H]2CN(C3=CC(=O)CC3)C[C@H]2CCN1C(=O)N(C)[C@H](C)c1cc(C(F)(F)F)cc(C(F)(F)F)c1 [Example 10, (3aS,4R,7aS)-N-{(1R)-1-[3,5-bis(trifluoromethyl)phenyl]ethyl}-N-methyl-4-(2-methylphenyl)-2-(3-oxocyclopent-1-en-1-yl)octahydro-5H-pyrrolo[3,4-c]-pyridine-5-carboxamide] | 0.066 nM
11 | Cc1ccccc1[C@H]1[C@@H]2CN(C(N)=O)C[C@H]2CCN1C(=O)N(C)[C@H](C)c1cc(C(F)(F)F)cc(C(F)(F)F)c1 [Example 11, (3aS,4R,7aS)-N^5-{(1R)-1-[3,5-bis(trifluoromethyl)phenyl]ethyl}-N^5-methyl-4-(2-methylphenyl)tetrahydro-1H-pyrrolo[3,4-c]pyridine-2,5(3H,4H)-dicarboxamide] | 0.06 nM
12 | Cc1ccccc1[C@H]1C2CN(C3=NC(=O)CO3)C[C@H]2CCN1C(=O)N(C)[C@H](C)c1cc(C(F)(F)F)cc(C(F)(F)F)c1 (stereo partly drawn) [Example 12] | 0.043 nM
13 | Cc1ccccc1[C@H]1C2CN(C3=CC(=O)OC3)C[C@H]2CCN1C(=O)N(C)[C@H](C)c1cc(C(F)(F)F)cc(C(F)(F)F)c1 (stereo partly drawn) [Example 13, (3aS,4R aS)-N-{(1R)-1-[3,5-bis(trifluoromethyl)phenyl]ethyl}-N-methyl-4-(2-methylphenyl)-2-(5-oxo-2,5-dihydrofuran-3-yl)octahydro-5H-pyrrolo[3,4-c]pyridine-5-carboxamide] | 0.083 nM
14 | Cc1ccccc1[C@H]1[C@@H]2CN(C(C)C)C[C@H]2CCN1C(=O)N(C)[C@H](C)c1cc(C(F)(F)F)cc(C(F)(F)F)c1 [Example 14, (3aS,4R,7aS)-N-{(1R)-1-[3,5-bis(trifluoromethyl)phenyl]ethyl}-2-isopropyl-N-methyl-4-(2-methylphenyl)octahydro-5H-pyrrolo[3,4-c]pyridine-5-carboxamide] | 0.044 nM
15 | Cc1ccccc1[C@H]1[C@@H]2CN(CC(N)=O)C[C@H]2CCN1C(=O)N(C)[C@H](C)c1cc(C(F)(F)F)cc(C(F)(F)F)c1 [Example 15, (3aS,4R,7aS)-2-(2-amino-2-oxoethyl)-N-{(1R)-1-[3,5-bis(trifluoromethyl)phenyl]ethyl}-N-methyl-4-(2-methylphenyl)octahydro-5H-pyrrolo[3,4-c]pyridine-5-carboxamide] | 0.071 nM
16 | Cc1ccccc1[C@H]1[C@@H]2CN(CC(=O)O)C[C@H]2CCN1C(=O)N(C)[C@H](C)c1cc(C(F)(F)F)cc(C(F)(F)F)c1 [Example 16, [(3aS,4R,7aS)-5-{[{(1R)-1-[3,5-bis(trifluoromethyl)phenyl]ethyl}(methyl)amino]carbonyl}-4-(2-methylphenyl)octahydro-2H-pyrrolo[3,4-c]pyridin-2-yl]acetic acid] | 0.152 nM
17 | Cc1ccccc1[C@H]1[C@@H]2CN(C(=O)[C@H](C)O)C[C@H]2CCN1C(=O)N(C)[C@H](C)c1cc(C(F)(F)F)cc(C(F)(F)F)c1 [Example 17, (3aS,4R,7aS)-N-{(1R)-1-[3,5-bis(trifluoromethyl)phenyl]ethyl}-2-[(2S)-2-hydroxypropanoyl]-N-methyl-4-(2-methylphenyl)octahydro-5H-pyrrolo[3,4-c]pyridine-5-carboxamide] | 0.081 nM
18 | CC(=O)N1CC2[C@H](CCN(C(=O)N(C)[C@H](C)c3cc(C(F)(F)F)cc(C(F)(F)F)c3)[C@H]2c2ccccc2C)C1 (stereo partly drawn) [Example 18, (3aS,4R,7aS)-2-acetyl-N{(1R)-1-[3,5-bis(trifluoromethyl)phenyl]ethyl}-N-methyl-4-(2-methylphenyl)octahydro-5H-pyrrolo[3,4-c]pyridine-5-carboxamide] | 0.068 nM
